# Results: patent US11364211B2, “Methods for selecting phosphatase selective and non-selective phosphatase inhibitors” (MEDICAL RESEARCH COUNCIL, priority 2015, dated 2022)
# Key:
# PPP1R15A-PP1 complex = target: T1, PPP1R15A-PP1 complex (Homo sapiens, UniProt O75807); experiment: SPR steady-state binding to R15A-PP1c holophosphatase on streptavidin chip; details: steady-state affinity
# T1 construct: the cDNAs encoding amino acids 325-636 of PPP1R15A; made in house; host or cells: R15A fragment: E. coli BL21-Gold; BAP-PP1γ: Sf9 insect cells (baculovirus)
# T1 sequence (O75807 325-636): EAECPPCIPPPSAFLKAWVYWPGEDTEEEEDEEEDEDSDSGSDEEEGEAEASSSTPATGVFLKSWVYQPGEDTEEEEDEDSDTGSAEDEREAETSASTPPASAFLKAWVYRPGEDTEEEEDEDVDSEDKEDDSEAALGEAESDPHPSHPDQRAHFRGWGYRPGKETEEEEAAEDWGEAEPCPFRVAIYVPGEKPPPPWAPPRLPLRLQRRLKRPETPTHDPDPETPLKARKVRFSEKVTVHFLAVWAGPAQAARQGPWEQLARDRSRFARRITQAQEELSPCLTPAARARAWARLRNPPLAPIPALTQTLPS
# T1 sequence (P36873 whole entry partner, the tested form may be a part): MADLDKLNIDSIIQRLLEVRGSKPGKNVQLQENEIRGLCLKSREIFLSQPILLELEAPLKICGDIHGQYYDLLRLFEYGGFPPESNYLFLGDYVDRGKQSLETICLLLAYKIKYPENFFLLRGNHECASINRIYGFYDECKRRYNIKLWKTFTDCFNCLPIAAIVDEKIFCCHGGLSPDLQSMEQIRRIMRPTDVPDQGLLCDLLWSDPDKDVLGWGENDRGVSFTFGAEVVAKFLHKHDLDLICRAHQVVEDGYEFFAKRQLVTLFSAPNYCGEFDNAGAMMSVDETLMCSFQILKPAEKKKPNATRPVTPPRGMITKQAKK
# Experimental: (§1) The streptavidin coated surface was activated by 1 min injection with a solution of 50 mM NaOH and 1 M NaCl. Biotin-PP1 was diluted in the running buffer (50 mM Tris pH 7.5, 100 mM NaCl, 0.1 mM EGTA, 1 mM MnCl2, 0.05% Tween 20) and injected at approximately 300 nM concentration directly to streptavidin coated surface for 100 sec or to reach immobilization level of biotin-PP1 corresponding to ˜7000 RU. A blank immobilization was performed for one of the SA sensor chip surface to use as a reference.
# (§2) With minor deviations, the same procedure and conditions were used in all binding experiments. Small molecules were stored as 50 mM stock solutions in 100% DMSO. Prior to determining binding constants, serial dilutions of either 12 or 8 concentrations of the compounds were prepared in the running buffer in a 96-well plate. […] Then, without regenerating the surface, the compound dilution series was injected onto the surface of the chip Sensorgrams were analyzed using the Biacore T200 evaluation software and the binding constants determined based on a steady-state model. Kinetic experiments are carried out using different concentrations of the compound and their respective equilibrium binding levels determined.
# (§3) Surface Plasmon Resonance (SPR) was used to measure the binding affinity of compounds to the PPP1R15A/B-PP1 phosphatase complex. Biotin acceptor peptide (BAP) was fused to the N-terminus of PP1γ, which enables the biotinylation of the BAP-tagged protein in Sf9 insect cells. After purification the BAP-PP1γ protein was captured on a streptavidin sensor chip (SA-chip, GE healthcare) to a response level of ˜5.000 RU. Using controlled biotinylation enables orientated and uniform immobilization on the sensor chip surface. The PP1γ was then used to capture PPP1R15A/B and form a holophosphatase complex on the surface of the streptavidin chip. This complex can then be used to test binding of compounds. 10 μM PPP1R15A/B protein concentration was used to form the holophosphatase complex during a 80 s injection. […] After the concentration series (8 or 12 concentrations) is completed the surface is regenerated with 3 M NaCl and we can capture R15A/B again to form a fresh holophosphatase complex to measure a binding of another compound concentration series. Analysing the level of equilibrium binding as a function of concentration gives interaction affinities or steady-state binding affinity (KD).
# (§4) The streptavidin coated surface was activated by 1 minute injection with a solution of 50 mM NaOH and 1 M NaCl three times at a flow rate of 10 μl/min. bio-GBZ or bio-PP1c was diluted in the running buffer (50 mM Tris pH 7.5, 100 mM NaCl, 0.1 mM EGTA, 0.05% Tween 20, 0.1% DMSO) and injected at approximately 300 nM concentration at a flow rate of 10 μl/min directly to streptavidin coated surface to reach immobilization level of bio-GBZ or bio-PP1c corresponding to ˜200 and 6000 RU, respectively. A blank immobilization was performed for one of the SA sensor chip surface to use as a reference.
# (§5) With minor deviations, the same procedure and conditions were used in all binding experiments. Small molecules were stored as 50 mM stock solutions in 100% DMSO. Prior to determining binding constants, serial dilutions of either 12 or 8 concentrations of the compounds were prepared in the running buffer in a 96-well plate. […] This was followed by 1 minute stabilization period, to wash off any unspecific binding. […]
# PPP1R15B-PP1 complex = target: T2, PPP1R15B-PP1 complex (Homo sapiens, UniProt Q5SWA1); experiment: SPR steady-state binding to R15B-PP1c holophosphatase on streptavidin chip; details: for Kd: SPR, steady-state affinity
# T2 construct: 340-698 of PPP1R15B were His-tagged and cloned into pMAL-c5x; made in house; host or cells: R15B fragment: E. coli BL21-Gold; BAP-PP1γ: Sf9 insect cells (baculovirus)
# T2 sequence (Q5SWA1 340-698): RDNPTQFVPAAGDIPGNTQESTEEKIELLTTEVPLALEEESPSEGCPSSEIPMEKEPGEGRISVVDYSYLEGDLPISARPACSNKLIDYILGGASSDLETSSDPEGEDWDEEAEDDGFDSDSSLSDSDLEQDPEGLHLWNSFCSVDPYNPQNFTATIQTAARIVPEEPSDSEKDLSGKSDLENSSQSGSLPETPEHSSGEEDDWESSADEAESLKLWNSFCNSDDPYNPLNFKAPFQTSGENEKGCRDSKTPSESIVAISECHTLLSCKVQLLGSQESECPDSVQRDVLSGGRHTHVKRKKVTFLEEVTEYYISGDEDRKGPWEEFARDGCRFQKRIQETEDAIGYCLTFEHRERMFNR
# T2 sequence (P36873 whole entry partner, the tested form may be a part): as the sequence (P36873 whole entry partner, the tested form may be a part) above
# Experimental: as §1, §2, §3, §4
# With minor deviations, the same procedure and conditions were used in all binding experiments. Small molecules were stored as 50 mM stock solutions in 100% DMSO. Prior to determining binding constants, serial dilutions of either 12 or 8 concentrations of the compounds were prepared in the running buffer in a 96-well plate. […] This was followed by 1 minute stabilization period, to wash off any unspecific binding. Then, without regenerating the surface, the compound dilution series was injected onto the surface of the chip at a flow rate of 30 μl/min for 1 minute, followed by 2 minutes dissociation time. After each dilution series the surface was regenerated using 3 M NaCl for 90 seconds. […] In order to be able to correct for small variations in DMSO concentration between samples, eight solvent samples ranging from 0.06 to 8% DMSO were injected every 50th cycle. The flow cell temperature was 10° C.
# PP1c [1] = target: T3, PP1c (Homo sapiens, UniProt P36873); experiment: SPR binding to PP1c alone immobilized on chip; details: PP1c alone, read-out: affinity (KD) for PP1
# T3 sequence (P36873 whole entry): as the sequence (P36873 whole entry partner, the tested form may be a part) above
# Experimental: as §4
# as §5, with “binding. Then, without regenerating the surface, the compound dilution series was injected onto the surface of the chip at a flow rate of 30 μl/min for 1 minute, followed by 2 minutes dissociation time.” for “binding.”
# Kinetic experiments are carried out using different concentrations of the compound and their respective equilibrium binding levels determined.
# PP1c [2] = target: T3, PP1c; experiment: PP1c catalytic activity assay (EnzChek); assay type: biochemical; details: purified PP1c 30 nM, 30 minutes at 4° C.
# Experimental: Residual activity of PP1c was then measured using the EnzChek Phosphatase Assay Kit (Thermo Fisher Scientific) according to the supplier's instructions.
Kd (PPP1R15A-PP1 complex) [µM],difference in affinities between PPP1R15A-PP1 and PPP1R15B-PP1 (PPP1R15B-PP1 complex; from SPR KD values),Structure (SMILES),Kd (PPP1R15B-PP1 complex) [µM],Kd (PP1c [1]) [µM],inhibition of PP1c in enzymatic assay (PP1c [2])
3.93,–,"N=C(N)N/N=C/c1cc(Cl)c(Cl)c(Cl)c1 [Example 3, (E)-2-(3,4,5-trichlorobenzylidene)hydrazine-1-carboximidamide]",–,–,–
5,greater than 30 fold,"N=C(N)N/N=C/c1ccc(F)cc1Cl [Example 2, (E)-2-(2-chloro-4-fluorobenzylidene)hydrazine-1-carboximidamide]",0.143,–,–
–,–,"COC[C@@H]([C@H](O)[C@H](O)C(=O)NCC[C@H](C)c1nc(/C=C/C[C@@H]2O[C@]3(C[C@@H](O)[C@@H]2C)O[C@H]([C@H](C[C@H](O)[C@H](C)[C@H](O)[C@H](C)/C=C(C)/C(C)=C/C=C/C(C)=C\C#N)OC)[C@H](OP(=O)(O)O)C3(C)C)co1)N(C)C [calyculin A, reference compound]",–,–,a catalytic inhibitor of PP1

Structure (SMILES),Kd (PPP1R15A-PP1 complex) [µM],difference in affinities between PPP1R15A-PP1 and PPP1R15B-PP1 (PPP1R15B-PP1 complex; from SPR KD values),Kd (PPP1R15B-PP1 complex) [µM],Kd (PP1c [1]) [µM],inhibition of PP1c in enzymatic assay (PP1c [2])
O=C(/C=C/c1ccccc1)NC(NC(=S)Nc1cccc2cccnc12)C(Cl)(Cl)Cl (centres unmarked) [Salubrinal],> 20,–,> 20,> 20,–
